Data reported in article PMC11943016, “TBG096 Ameliorates Memory Deficiency in AD Mouse Model via Promoting Neurogenesis and Regulation of Hsc70/HK2/PKM2/LAMP2A Signaling Pathway” (International Journal of Molecular Sciences, 2025).

How the values were obtained:
[1] = system: BV-2 microglial cells; assay: Anti-inflammatory activity in LPS-treated BV-2 cells (Iba1 fluorescence); assay type: cell-based; details: 24 h
Experimental: BV-2 cells were obtained from Nanjing CoBioer Biotechnology Ltd., Co., Nanjing, China, and cultured in RPMI 1640 medium (Roswell Park Memorial Institute 1640 medium, Gibco, Grand Island, NY, USA) supplemented with 10% FBS and 1% penicillin/streptomycin. The anti-inflammatory activity of samples in BV-2 cells was determined as follows. Approximately 5 × 10^4 cells were seeded in each well of a 24-well microplate and were cultured under a humidified atmosphere with 5% CO2 at 37 °C for 24 h. Then, the medium was replaced by 500 µL RPMI 1640 medium containing 0.5% DMSO or samples at different concentrations for 2 h, and 500 µL medium containing LPS (1 µg/mL) was added and incubated for 24 h. Next, the medium of each well was sucked out, and each well was washed with phosphate-buffered saline (PBS) three times and fixed with 4% paraformaldehyde (500 µL/well) for 20 min at room temperature. The fixative was discarded, washed with PBS, and blocked for 60 min. […] After that, the cell nucleus was stained with diluted DAPI (SouthernBiotech, Birmingham, AL, USA) for 10 min, and the fluorescence image of BV-2 cells was observed under the fluorescence inverted microscope. Three regions were randomly selected to be observed and recorded with pictures. Image J software version 1.8.0 (National Institutes of Health, Bethesda, MD, USA) was finally used to analyze the fluorescence density of BV-2 cells.

[2] = system: PC12 cells; assay: NGF-mimic activity: neurite outgrowth in PC12 cells; assay type: cell-based; details: 48 h
Experimental: The neurogenic activity of samples was evaluated according to the methods described in our previous study. Briefly, approximately 5 × 10^4 cells were seeded in each well of a 24-well microplate and were cultured under a humidified atmosphere with 5% CO2 at 37 °C for 24 h. Then, the medium in each well was replaced with 1 mL of serum-free DMEM containing 40 ng/mL NGF as a positive control, 0.5% DMSO as a negative control, and the test sample after 24 h, respectively. About 100–200 cells of each well were counted from a randomly selected area and repeated thrice after 48 h. A cell-bearing neurite outgrowth longer than the diameter of the cell body was identified as a positive cell. The activity was presented as the percentage of positive cells in the selected area.
In the inhibitor experiment of NGF-mimic activity, approximately 5 × 10^4 PC12 cells were seeded into each well of a 24-well plate and incubated for 24 h. After that, the medium in each well was replaced with 500 μL of serum-free DMEM or the serum-free DMEM containing VER155008, the inhibitor of Hsc70 protein, incubated in a CO2 incubator for 30 min. Subsequently, 500 μL of serum-free DMEM containing different samples was added and cultured, respectively. The PC12 cells with neurite outgrowth were recorded after 48 h. For the Western blot analysis, the experiment included five groups, namely the control (C) group, the NGF (40 ng/mL) group, the TBG096 (1 µM) group, the VER155008 (3 µM) group, and the VER155008 (3 µM) + TBG096 (1 µM) group. Afterwards, approximately 2 × 10^6 cells per dish were seeded into ten 6 cm Petri dishes with 5 mL of DMEM medium and incubated for 24 h. After giving different treatments with samples, the cells continued to culture for 4 h. Protein extraction was conducted to prepare for the subsequent Western blot analysis.

[3] = system: HFD-induced AD mice; assay: Immunofluorescence staining of brain tissue of HFD-induced AD mice; assay type: in vivo
Source text: (§1) In experiments with the HFD-induced AD mouse model, a total of 60 Institute of Cancer Research (ICR) male mice aged 4 weeks from Zhejiang Academy of Medical Sciences (Hangzhou, China) were used for animal experiments (permit number: ZJU20230121). The animals were provided free access to a chow diet and water. […] The HFD and normal diet were alternated every two days to maintain freshness. Weekly measurements were taken for water intake, food intake, and body weight. In the eighteenth week, the mice underwent Y-maze and NOR tests. The Morris water maze test was conducted during the nineteenth week. After confirming the successful establishment of the AD model characterized by cognitive impairment, oral administration of treatments commenced. […] Each group had 10 mice.
At the end of animal experiments, three mice in each group were taken for heart perfusion with cold PBS and 4% paraformaldehyde. After that, the brains of mice were fixed with 4% paraformaldehyde for 24 h and gradually dehydrated with 15% and 30% sucrose solutions for 48 h, respectively. The fixed and embedded brain sample was placed in a cryostat and cut into 20 µm thick slices with a cryostat (Thermo Fisher, Waltham, MA, USA), and brain slices in the hippocampus and cortex were collected. Finally, the brain slices were placed in antifreeze (glycerol/ethylene/PBS = 3:3:4) and kept in a refrigerator at −30 °C until immunostaining. The brain slices were fixed on a glass slide and hydrated with PBS for 5 min. Then, blocking buffer was added to the brain slices and incubated at room temperature for 1 h. Brain slices were washed twice with PBS and incubated with anti-NeuN, anti-BrdU, anti-Iba1, anti-GFAP, anti-INOS, anti-APP, or anti-p-Tau at 4 °C for 24 h, respectively. Subsequently, the brain slices were incubated with secondary antibody (goat anti-rabbit IgG H&L (Alexa Fluor® 488) or rabbit anti-mouse IgG (Cy3 conjugate)) at room temperature for 2 h after washing with PBS three times. Finally, a cover glass was used to lightly cover the slices stained with DAPI. […] Biomarker proteins in the cerebral cortex and hippocampus were digitized by Image J software (National Institutes of Health, Bethesda, MD, USA).

[4] = system: AMPK, p-AMPK, Hsc70, PKM2, HK2, LAMP2A, APP, Tau, p-Tau, Aβ oligomers; assay: Western blot of cerebral cortex of HFD-induced AD mice; assay type: in vivo
Source text: as §1
Approximately 50 mg of cerebral cortex from brain tissues was homogenized in RIPA lysis buffer containing 1% protease inhibitor and 1% phosphatase inhibitor. Then, the sample was centrifuged at 12,000 rpm at 4 °C for 10 min, and the supernatant was transferred to a new tube. Protein concentrations were determined using the BCA kit, and 30 µg of protein from each sample was denatured by heating in water at 100 °C for 10 min. […] Finally, the strip was developed using chemiluminescence ECL reagent, and the blot density was quantified with ImageJ (National Institutes of Health, Bethesda, MD, USA).

O=C(SCCCCCCSCCCC(F)(F)F)c1cccc(O)c1O [TBG096]
LPS-induced overactivation of BV-2 cells [1]: dose-dependently inhibited | optimal concentration for inhibition of LPS-induced overactivation of BV-2 cells [1]: 0.3 µM | percentage of PC12 cells exhibiting neurite growth ([2]; 0.3, 1, and 3 µM, listed as 3): superior activity | NGF-mimic effect after treatment with VER155008 (Hsc70 inhibitor) ([2]; PC12 cells): significantly diminished | APP and phosphorylation Tau protein in the hippocampus ([3]; immunofluorescence): reduction | Iba1, GFAP, INOS markers (activated microglia, astrocytes, M1 macrophages) in the hippocampus ([3]; vs HFD-only): significantly reduced | number of mature neurons (NeuN) in the cerebral cortex ([3]; vs HFD-only group): increased numbers of mature neurons | phosphorylated AMPK/AMPK, LAMP2A, Hsc70, HK2 and PKM2 protein levels [4]: returned to normal | APP, Tau, p-Tau, and Aβ oligomers protein expression ([4]; vs HFD): significantly reduced
